In this assay the test system is CsgA gene expression (csgBAC promoter-GFP reporter) in E. coli UTI89. Put plainly: In vitro live cell fluorescent reporter assay of CsgA transcription (Reporter Assay). In kind it is cell-based. Conditions: Escherichia coli. Here is the method: In vitro live cell fluorescent reporter assay to determine effects of compounds on CsgA transcription. To assess the impact of compounds on CsgA gene expression, a live cell assay was performed using an engineered strain of E. coli UTI89 with a fluorescent CsgA gene expression reporter driven by the csgBAC promoter. In the reporter strain, a gene encoding Green Fluorescent Protein (GFP) was placed immediately downstream of the full intergenic region between csgDEF and csgBAC, containing the csgBAC promoter and other transcriptional regulatory elements, and inserted in single copy into the E. coli UTI89 chromosome, as described in Cegelski et. al., “Small-molecule inhibitors target Escherichia coli amyloid biogenesis and biofilm formation,” Nat. Chem. Bio., 25 Oct. 2009. With this construct, GFP expression in the reporter strain was under the same regulation as CsgA expression. The reporter strain was struck out on a YESCA agar plate (1 g/L yeast extract, 10 g/L casamino acids, 20 g/L Bacto Agar) and grown at about 27° C. for 2 days, or until single colonies were sufficiently large to pick. A single colony of the reporter strain was used to inoculate 5 mL of YESCA broth (1 g/L yeast extract, 10 g/L casamino acids), which was grown overnight at about 27° C. The inoculum was diluted 1:10 in YESCA broth and the optical density at 600 nm (OD600) was measured on a SpectraMax M2 or M5e (Molecular Devices, San Jose, Calif.) spectrophotometer in cuvettes. The culture was then further diluted to achieve a final OD600 of 0.003, which was confirmed by measurement of the OD600. Compounds were diluted in dimethyl sulfoxide (DMSO) and plated on black clear-bottomed tissue culture-treated 96-well plates with 1.5 μL/well for final test concentrations from 0.14-100 μM. All assay wells, including vehicle controls and positive controls for inhibition, included 1% DMSO final. Vehicle control wells consisted of DMSO and the reporter strain to assess the expression of the reporter strain in the assay in the absence of any compound. […] 148.5 μL culture at OD600 0.003 in YESCA broth was added to all wells for 150 μL final volume. Plates were incubated at 27° C. for 20 hours, then GFP fluorescence signal for each well was read on a Spectramax M2 or M5e plate reader with excitation at 485 nm, emission at 525 nm, and a cutoff at 515 nm. OD600 for each well was also measured on the Spectramax M2 or M5e plate reader. […] Background fluorescence was subtracted from all wells, then fluorescence signal for each well was normalized to the mean of the vehicle control wells. Normalized dose response curves were plotted for each compound, and compound inhibition of CsgA transcription was determined by assessing the curve-fit IC50, bottom, top, span (top-bottom), and Hill slope using GraphPad Prism software version 8.1.1 (GraphPad Software, San Diego, Calif.). An additional metric used to evaluate compounds was the concentration at which the curve reached 50% of the expression level of the vehicle control. This was written as a custom analysis in GraphPad Prism according to the formula X[50], or the X value at which Y=50, ie, the compound concentration at which fluorescence of the reporter strain was calculated to reach 50% of the vehicle control fluorescence. Separately from the fluorescence data, OD600 values were normalized to the mean of the vehicle control wells, and dose response curves were plotted for each compound. OD600 reduction of greater than 10% indicated compounds had some toxicity or negative impact on bacterial growth. […]

Where [1] appears, read: read-out: Reporter Assay Abs IC50 (activity range), median Abs IC50 in the CsgA reporter assay, class symbol.
[2] abbreviates: read-out: Reporter Assay Abs IC50 (μM), median Abs IC50 in the CsgA reporter assay, N/A = maximum expression reduction is <50% of control.
Setting [3] is: read-out: Reporter Assay Abs IC50, activity range, class symbol.

Results on 18 molecules are retold here after patent US20230131899A1, “INHIBITORS OF MICROBIALLY INDUCED AMYLOID” (Axial Therapeutics, Inc., priority 2020, published 2023).

What is called IC50 is the point on the concentration scale where inhibition reaches its midpoint.

Like-named read-outs stand apart in the source and are kept apart here. A value given as a limit tells only on which side of the number the result lay.

In the case of `CN1CC(C(=O)O)n2c(c(-c3cccc(C(F)(F)F)c3)c(Cc3cccc4ccccc34)cc2=O)S1(=O)=O` (racemic) [Compound 008, 2-methyl-8-(naphthalen-1-ylmethyl)-6-oxo-9-(3-(trifluoromethyl)phenyl)-3,4-dihydro-2H,6H-pyrido[1,2-e][1,2,5]thiadiazine-4-carboxylic acid 1,1-dioxide], the IC50 is 1.3 to 4.5 µM under setting [1] and 4.3 µM under setting [2].

Turning to `CCCCN1CC(C(=O)O)n2c(c(-c3cccc(C(F)(F)F)c3)c(Cc3cccc4ccccc34)cc2=O)S1(=O)=O` (racemic) [Compound 021, 2-butyl-8-(naphthalen-1-ylmethyl)-6-oxo-9-(3-(trifluoromethyl)phenyl)-3,4-dihydro-2H,6H-pyrido[1,2-e][1,2,5]thiadiazine-4-carboxylic acid 1,1-dioxide], the IC50 was 1.3 to 4.5 µM under setting [1] and 2.6 µM under setting [2].

As for `O=C(O)c1c[nH]c2c(-c3cccc(C(F)(F)F)c3)c(Cc3cccc4ccccc34)cc(=O)n12` [Compound 110, 7-(naphthalen-1-ylmethyl)-5-oxo-8-(3-(trifluoromethyl)phenyl)-1,5-dihydroimidazo[1,2-a]pyridine-3-carboxylic acid], the 50% inhibitory concentration (IC50) is, setting by setting: under setting [1], > 10 µM; under setting [2], 13.7 µM.

Turning to `COc1ccc(Cc2c(-c3cccc(C(F)(F)F)c3)c3n(c(=O)c2Cl)C(C(=O)O)CN3Cc2ccccc2)c2ccccc12` (centres unmarked) [Compound 219, 1-benzyl-6-chloro-7-((4-methoxynaphthalen-1-yl)methyl)-5-oxo-8-(3-(trifluoromethyl)phenyl)-1,2,3,5-tetrahydroimidazo[1,2-a]pyridine-3-carboxylic acid], the half-maximal inhibitory concentration (IC50) is, setting by setting: under setting [2], 0.8 µM; under setting [3], < 1.3 µM.

With `COc1ccc(Cc2cc(=O)n3c(c2-c2cccc(C(F)(F)F)c2)N(Cc2ccccc2)CC3C(=O)O)c2ccccc12` (centres unmarked) [Compound 220, 1-benzyl-7-((4-methoxynaphthalen-1-yl)methyl)-5-oxo-8-(3-(trifluoromethyl)phenyl)-1,2,3,5-tetrahydroimidazo[1,2-a]pyridine-3-carboxylic acid], the IC50 under setting [2] was 1.2 µM and the IC50 under setting [3] was < 1.3 µM.

Regarding `O=C(O)C1CN(Cc2ccccc2)c2c(-c3cccc(C(F)(F)F)c3)c(Cc3cncc4ccccc34)cc(=O)n21` (centres unmarked) [Compound 221, 1-benzyl-7-(isoquinolin-4-ylmethyl)-5-oxo-8-(3-(trifluoromethyl)phenyl)-1,2,3,5-tetrahydroimidazo[1,2-a]pyridine-3-carboxylic acid], the IC50 is, setting by setting: under setting [2], 6.7 µM; under setting [3], 4.6 to 10 µM.

On to `O=C(O)C1CN(Cc2ccccc2)c2c(-c3cccc(C(F)(F)F)c3)c(Cc3cccc4ncccc34)cc(=O)n21` (centres unmarked) [Compound 222, 1-benzyl-5-oxo-7-(quinolin-5-ylmethyl)-8-(3-(trifluoromethyl)phenyl)-1,2,3,5-tetrahydroimidazo[1,2-a]pyridine-3-carboxylic acid], for which the half-inhibitory concentration (IC50) is, setting by setting: under setting [2], 31.8 µM; under setting [3], > 10 µM.

As for `O=C(O)C1CN(Cc2ccccc2)c2c(-c3cccc(C(F)(F)F)c3)c(Cc3cccc4cnccc34)cc(=O)n21` (centres unmarked) [Compound 223, 1-benzyl-7-(isoquinolin-5-ylmethyl)-5-oxo-8-(3-(trifluoromethyl)phenyl)-1,2,3,5-tetrahydroimidazo[1,2-a] pyridine-3-carboxylate], the half-maximal inhibitory concentration (IC50) is, setting by setting: under setting [2], 21.7 µM; under setting [3], > 10 µM.

Consider `O=C(O)C1CN(Cc2ccccc2)c2c(-c3cccc(C(F)(F)F)c3)c(Cc3cccc4cccnc34)cc(=O)n21` (centres unmarked) [Compound 224, 1-benzyl-5-oxo-7-(quinolin-8-ylmethyl)-8-(3-(trifluoromethyl)phenyl)-1,2,3,5-tetrahydroimidazo[1,2-a]pyridine-3-carboxylic acid], for which the half-inhibitory concentration (IC50) under setting [2] was 9.7 µM and the half-inhibitory concentration (IC50) under setting [3] was in the range of 4.6 to 10 µM.

Consider `O=C(O)C1CN(Cc2ccccc2)c2c(-c3cccc(C(F)(F)F)c3)c(Cc3ccc(Cl)c4ccccc34)c(Cl)c(=O)n21` (centres unmarked) [Compound 225, 1-benzyl-6-chloro-7-((4-chloronaphthalen-1-yl)methyl)-5-oxo-8-(3-(trifluoromethyl)phenyl)-1,2,3,5-tetrahydroimidazo[1,2-a]pyridine-3-carboxylic acid], for which the IC50 under setting [2] was 1.6 µM and the 50% inhibitory concentration (IC50) under setting [3] was in the range of 1.3 to 4.5 µM.

Take `CC(C)(C)c1cccc(Cc2cc(=O)n3c(c2-c2cccc(C(F)(F)F)c2)N(Cc2ccccc2)CC3C(=O)O)c1` (centres unmarked) [Compound 226, 1-benzyl-7-(3-(tert-butyl)benzyl)-5-oxo-8-(3-(trifluoromethyl)phenyl)-1,2,3,5-tetrahydroimidazo[1,2-a] pyridine-3-carboxylic acid]: the IC50 under setting [2] stood at 2.7 µM.

For the molecule `CC(C)(C)c1ccc(Cc2cc(=O)n3c(c2-c2cccc(C(F)(F)F)c2)N(Cc2ccccc2)CC3C(=O)O)cc1` (centres unmarked) [Compound 227, 1-benzyl-7-(4-(tert-butyl)benzyl)-5-oxo-8-(3-(trifluoromethyl)phenyl)-1,2,3,5-tetrahydroimidazo[1,2-a] pyridine-3-carboxylic acid], the half-maximal inhibitory concentration (IC50) by setting is: under setting [2], 1.8 µM; under setting [3], 1.3 to 4.5 µM.

As for `O=C(O)C1CN(Cc2ccccc2)c2c(-c3cccc(C(F)(F)F)c3)c(CN3CCCc4ccccc43)cc(=O)n21` (centres unmarked) [Compound 228, 1-benzyl-7-((3,4-dihydroquinolin-1 (2H)-yl)methyl)-5-oxo-8-(3-(trifluoromethyl)phenyl)-1,2,3,5-tetrahydroimidazo[1,2-a]pyridine-3-carboxylic acid], the IC50 runs as follows: under setting [2], 3.9 µM; under setting [3], 1.3 to 4.5 µM.

As to `O=C(O)C1CN(Cc2ccccc2)c2c(-c3cccc(C(F)(F)F)c3)c(CN3CCC[C@@H](c4ccccc4)C3)c(Cl)c(=O)n21` (stereo partly drawn) [Compound 230, 1-benzyl-6-chloro-5-oxo-7-(((S)-3-phenylpiperidin-1-yl)methyl)-8-(3-(trifluoromethyl)phenyl)-1,2,3,5-tetrahydroimidazo[1,2-a]pyridine-3-carboxylic acid], the half-inhibitory concentration (IC50) was 1.2 µM under setting [2] and < 1.3 µM under setting [3].

As for `O=C(O)C1CN(Cc2ccccc2)c2c(-c3cccc(C(F)(F)F)c3)c(CN3CCC[C@@H](c4ccccc4)C3)cc(=O)n21` (stereo partly drawn) [Compound 231, 1-benzyl-5-oxo-7-(((S)-3-phenylpiperidin-1-yl)methyl)-8-(3-(trifluoromethyl)phenyl)-1,2,3,5-tetrahydroimidazo[1,2-a]pyridine-3-carboxylic acid], the half-inhibitory concentration (IC50) under setting [2] came out at 3.4 µM and the IC50 under setting [3] was in the range of 1.3 to 4.5 µM.

Turning to `O=C(O)C1CN(Cc2ccccc2)c2c(-c3cccc(C(F)(F)F)c3)c(Cc3ccccc3)cc(=O)n21` (centres unmarked) [Compound 235, 1,7-dibenzyl-5-oxo-8-(3-(trifluoromethyl)phenyl)-1,2,3,5-tetrahydroimidazo[1,2-a]pyridine-3-carboxylic acid], the IC50 under setting [2] is 2.7 µM and the IC50 under setting [3] lay in the range of 1.3 to 4.5 µM.

Take `O=C(O)C1CN(Cc2ccccc2)c2c(-c3cccc(C(F)(F)F)c3)c(CCc3ccccc3)cc(=O)n21` (centres unmarked) [Compound 236, 1-benzyl-5-oxo-7-phenethyl-8-(3-(trifluoromethyl)phenyl)-1,2,3,5-tetrahydroimidazo[1,2-a]pyridine-3-carboxylic acid]: the IC50 is, setting by setting: under setting [2], 1.7 µM; under setting [3], 1.3 to 4.5 µM.

For the molecule `O=C(O)C1CN(Cc2ccccc2)c2c(-c3cccc(C(F)(F)F)c3)c(CN3CCC[C@H](c4ccccc4)C3)c(Cl)c(=O)n21` (stereo partly drawn) [Compound 237, 1-benzyl-6-chloro-5-oxo-7-(((R)-3-phenylpiperidin-1-yl)methyl)-8-(3-(trifluoromethyl)phenyl)-1,2,3,5-tetrahydroimidazo[1,2-a]pyridine-3-carboxylic acid], the IC50 was 1.3 µM under setting [2] and 1.3 to 4.5 µM under setting [3].
